Data published in patent US9296694B2, “Azacyclic compounds” (ACADIA Pharmaceuticals Inc., priority 2000, dated 2016).
Counter-ions that a name gives are not always drawn.

Legend:
Test in all cases: R-SAT selectivity profile of 26HCH16D
[1] = target: T1, alpha1b/B (Mesocricetus auratus, UniProt P18841); type: cell-based, hamster; settings: 4 doses in duplicate (3, 30, 300, 3000 nM)
T1 construct: expressed in transfected cells; host or cells: NIH3T3, pSI vector
T1 sequence (P18841 1-515): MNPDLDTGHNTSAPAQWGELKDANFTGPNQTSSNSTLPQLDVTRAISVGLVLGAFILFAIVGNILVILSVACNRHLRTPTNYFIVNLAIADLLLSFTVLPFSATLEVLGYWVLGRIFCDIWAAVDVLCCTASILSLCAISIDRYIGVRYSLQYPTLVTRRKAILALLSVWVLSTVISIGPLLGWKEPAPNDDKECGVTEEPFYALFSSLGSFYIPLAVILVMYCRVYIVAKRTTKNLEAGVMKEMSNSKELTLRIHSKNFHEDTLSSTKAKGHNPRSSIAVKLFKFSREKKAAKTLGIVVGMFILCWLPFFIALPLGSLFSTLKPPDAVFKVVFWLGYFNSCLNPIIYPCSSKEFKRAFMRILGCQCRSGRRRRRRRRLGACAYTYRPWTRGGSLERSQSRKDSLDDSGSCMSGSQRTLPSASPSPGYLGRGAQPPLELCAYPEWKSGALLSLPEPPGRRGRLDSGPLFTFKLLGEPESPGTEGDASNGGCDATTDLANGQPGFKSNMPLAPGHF
Protocol: The functional receptor assay, Receptor Selection and Amplification Technology (R-SAT), was used (with minor modifications from that previously described U.S. Pat. No. 5,707,798) to screen compounds for efficacy at the 5-HT2A receptor. Briefly, NIH3T3 cells were grown in 96 well tissue culture plates to 70-80% confluence. Cells were transfected for 12-16 hours with plasmid DNAs using superfect (Qiagen Inc.) as per manufacture's protocols. R-SAT's were generally performed with 50 ng/well of receptor and 20 ng/well of Beta-galactosidase plasmid DNA. All receptor and G-protein constructs used were in the pSI mammalian expression vector (Promega Inc) as described in U.S. Pat. No. 5,707,798. The 5HT2A receptor gene was amplified by nested PCR from brain cDNA using the oligodeoxynucleotides based on the published sequence (see Saltzman et. al. Biochem. Biophys. Res. Comm. 181:1469-78 (1991)). Large-scale transfections, cells were transfected for 12-16 hours, then trypsinized and frozen in DMSO. […] Media was then removed from the plates and marker gene activity was measured by the addition of the beta-galactosidase substrate ONPG (in PBS with 5% NP-40). The resulting colorimetric reaction was measured in a spectrophotometric plate reader (Titertek Inc.) at […]. All data were analyzed using the computer program XLFit (IDBSm). […]

[2] = target: T2, H1 (Homo sapiens, UniProt P35367); type: cell-based
T2 construct: expressed in transfected cells; host or cells: NIH3T3, pSI vector
Protocol: (§1) The functional receptor assay, Receptor Selection and Amplification Technology (R-SAT), was used (with minor modifications from that previously described U.S. Pat. No. 5,707,798) to screen compounds for efficacy at the 5-HT2A receptor. Briefly, NIH3T3 cells were grown in 96 well tissue culture plates to 70-80% confluence. Cells were transfected for 12-16 hours with plasmid DNAs using superfect (Qiagen Inc.) as per manufacture's protocols. R-SAT's were generally performed with 50 ng/well of receptor and 20 ng/well of Beta-galactosidase plasmid DNA. All receptor and G-protein constructs used were in the pSI mammalian expression vector (Promega Inc) as described in U.S. Pat. No. 5,707,798. The 5HT2A receptor gene was amplified by nested PCR from brain cDNA using the oligodeoxynucleotides based on the published sequence (see Saltzman et. al. Biochem. Biophys. Res. Comm. 181:1469-78 (1991)). Large-scale transfections, cells were transfected for 12-16 hours, then trypsinized and frozen in DMSO. Frozen cells were later thawed, plated at 10,000-40,000 cells per well of a 96 well plate that contained drug. With both methods, cells were then grown in a humidified atmosphere with 5% ambient CO2 for five days. Media was then removed from the plates and marker gene activity was measured by the addition of the beta-galactosidase substrate ONPG (in PBS with 5% NP-40). The resulting colorimetric reaction was measured in a spectrophotometric plate reader (Titertek Inc.) at […]. All data were analyzed using the computer program XLFit (IDBSm). Efficacy is the percent maximal repression compared to repression by a control compound (ritanserin in the case of 5HT2A). pIC50 is the negative of the log(IC50), where IC50 is the calculated concentration in Molar that produces 50% maximal repression.
(§2) R-SAT assays (as described in Example 42) were carried out with cells transfected with receptors (listed below) to determine the receptor selectivity profile for compound 26HCH16D. 5HT2A inverse agonist data (IC50 nM; % efficacy) were derived from detailed dose response curves (7 points in triplicate).

[3] = target: T3, alpha1c/A (Homo sapiens, UniProt P35348); type: cell-based
T3 construct: expressed in transfected cells; host or cells: NIH3T3, pSI vector
T3 sequence (P35348 1-466): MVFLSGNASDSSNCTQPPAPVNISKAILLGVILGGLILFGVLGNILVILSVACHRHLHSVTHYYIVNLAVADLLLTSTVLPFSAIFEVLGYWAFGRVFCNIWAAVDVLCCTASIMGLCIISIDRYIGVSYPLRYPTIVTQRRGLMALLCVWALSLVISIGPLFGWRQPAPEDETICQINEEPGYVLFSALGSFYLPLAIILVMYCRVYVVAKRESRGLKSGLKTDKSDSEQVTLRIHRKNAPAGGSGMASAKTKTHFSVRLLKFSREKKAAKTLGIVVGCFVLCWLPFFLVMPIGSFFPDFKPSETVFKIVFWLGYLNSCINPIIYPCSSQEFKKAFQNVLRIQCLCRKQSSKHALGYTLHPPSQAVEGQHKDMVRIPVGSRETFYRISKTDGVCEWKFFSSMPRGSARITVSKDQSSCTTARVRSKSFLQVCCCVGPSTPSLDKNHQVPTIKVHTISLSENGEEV
Protocol: as §1, §2

[4] = target: T4, 5HT1E (Homo sapiens, UniProt P28566); type: cell-based; settings: Agonist; 4 doses in duplicate (3, 30, 300, 3000 nM)
T4 construct: expressed in transfected cells; host or cells: NIH3T3, pSI vector
Protocol: as §1, §2

[5] = target: T5, 5HT2C (Homo sapiens, UniProt P28335); type: cell-based; settings: Inverse Agonist; 4 dose profiling
T5 construct: expressed in transfected cells; host or cells: NIH3T3, pSI vector
T5 sequence (P28335 33-458): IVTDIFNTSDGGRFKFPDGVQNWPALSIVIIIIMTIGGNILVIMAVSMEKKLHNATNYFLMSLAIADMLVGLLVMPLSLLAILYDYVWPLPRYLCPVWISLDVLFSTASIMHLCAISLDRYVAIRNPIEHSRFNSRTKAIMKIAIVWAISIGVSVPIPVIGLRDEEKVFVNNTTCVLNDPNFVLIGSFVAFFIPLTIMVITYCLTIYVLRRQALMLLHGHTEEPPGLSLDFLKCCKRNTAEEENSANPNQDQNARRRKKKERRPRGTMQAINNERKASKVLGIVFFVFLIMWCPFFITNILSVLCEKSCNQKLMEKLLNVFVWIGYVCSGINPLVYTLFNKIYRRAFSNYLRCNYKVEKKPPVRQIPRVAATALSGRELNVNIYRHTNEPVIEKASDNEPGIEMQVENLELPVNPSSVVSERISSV
Protocol: as §1, §2

[6] = target: T6, D2 (Homo sapiens, UniProt P14416); type: cell-based
T6 construct: expressed in transfected cells; host or cells: NIH3T3, pSI vector
Protocol: as §1, §2

[7] = Agonist, 4 doses in duplicate (3, 30, 300, 3000 nM)

T6 sequence (P14416 whole entry): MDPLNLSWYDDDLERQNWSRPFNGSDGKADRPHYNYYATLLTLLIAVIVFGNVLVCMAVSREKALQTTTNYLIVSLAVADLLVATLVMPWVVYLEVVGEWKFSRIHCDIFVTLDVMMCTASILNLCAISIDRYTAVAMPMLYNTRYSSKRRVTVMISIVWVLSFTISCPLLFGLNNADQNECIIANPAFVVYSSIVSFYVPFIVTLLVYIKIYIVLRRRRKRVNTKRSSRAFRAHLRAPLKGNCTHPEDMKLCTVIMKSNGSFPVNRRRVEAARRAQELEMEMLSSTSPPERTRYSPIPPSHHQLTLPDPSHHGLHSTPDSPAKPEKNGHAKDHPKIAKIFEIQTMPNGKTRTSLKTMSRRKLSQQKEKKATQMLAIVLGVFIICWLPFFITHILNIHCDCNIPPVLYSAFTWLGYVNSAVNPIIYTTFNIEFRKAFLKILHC
T2 sequence (P35367 whole entry): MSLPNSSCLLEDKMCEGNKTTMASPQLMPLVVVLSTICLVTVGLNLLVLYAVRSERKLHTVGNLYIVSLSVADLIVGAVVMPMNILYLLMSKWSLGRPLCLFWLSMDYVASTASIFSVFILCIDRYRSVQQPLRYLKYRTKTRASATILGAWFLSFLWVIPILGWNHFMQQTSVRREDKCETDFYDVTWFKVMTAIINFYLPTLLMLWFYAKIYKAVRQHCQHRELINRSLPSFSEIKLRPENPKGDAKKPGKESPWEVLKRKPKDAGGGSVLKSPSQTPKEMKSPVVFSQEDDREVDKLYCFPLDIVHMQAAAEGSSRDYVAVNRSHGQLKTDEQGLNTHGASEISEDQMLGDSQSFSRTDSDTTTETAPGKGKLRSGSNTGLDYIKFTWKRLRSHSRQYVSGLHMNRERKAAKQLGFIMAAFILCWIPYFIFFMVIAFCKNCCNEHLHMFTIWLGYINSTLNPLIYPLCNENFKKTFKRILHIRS
T4 sequence (P28566 whole entry): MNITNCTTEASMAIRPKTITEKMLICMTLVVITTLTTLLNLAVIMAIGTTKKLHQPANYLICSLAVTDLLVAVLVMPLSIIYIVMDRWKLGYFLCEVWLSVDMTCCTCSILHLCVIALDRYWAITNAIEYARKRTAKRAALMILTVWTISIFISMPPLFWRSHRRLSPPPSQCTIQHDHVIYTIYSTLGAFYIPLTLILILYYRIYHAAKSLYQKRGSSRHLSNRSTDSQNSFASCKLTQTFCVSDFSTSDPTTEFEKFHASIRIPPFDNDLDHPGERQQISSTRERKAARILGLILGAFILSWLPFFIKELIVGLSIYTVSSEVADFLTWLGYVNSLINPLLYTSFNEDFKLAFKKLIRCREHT

Compound: Cc1ccc(CN(C(=O)NCc2ccccc2)C2CCN(Cc3ccccc3)CC2)cc1 [Compound 26HCH16D, N-((4-Methylphenyl)methyl)-N-(1-(phenylmethyl)piperidin-4-yl)-N′-phenylmethylcarbamide hydrochloride]
- Efficacy ([1]; Agonist): nr (nr=activity less than 30% at all doses tested (3, 30, 300, 3000 nM), therefore EC50/IC50 greater than 3000 nM))
- Efficacy ([1]; Antagonist): nr (nr=activity less than 30% at all doses tested (3, 30, 300, 3000 nM), therefore EC50/IC50 greater than 3000 nM))
- Efficacy [2, 7]: nr (nr=activity less than 30% at all doses tested (3, 30, 300, 3000 nM), therefore EC50/IC50 greater than 3000 nM))
- initial concentration at which at least 30% efficacy observed ([2]; Antagonist, 4 dose profiling): 3000 nM
- Efficacy [3, 7]: nr (nr=activity less than 30% at all doses tested (3, 30, 300, 3000 nM), therefore EC50/IC50 greater than 3000 nM))
- initial concentration at which at least 30% efficacy observed ([3]; Antagonist, 4 dose profiling): 3000 nM
- Efficacy [4]: nr (nr=activity less than 30% at all doses tested (3, 30, 300, 3000 nM), therefore EC50/IC50 greater than 3000 nM))
- initial concentration at which at least 30% efficacy observed [5]: 3000 nM
- Efficacy [6, 7]: nr (nr=activity less than 30% at all doses tested (3, 30, 300, 3000 nM), therefore EC50/IC50 greater than 3000 nM))
- initial concentration at which at least 30% efficacy observed ([6]; Antagonist, 4 dose profiling): 3000 nM
